Measured values from US20200270309A1, “MALEIMIDE GROUP-MODIFIED ANGIOGENESIS INHIBITOR HM-1 AND USE THEREOF” (NANJING ANJI BIOLOGICAL TECHNOLOGY CO., LTD, priority 2017, published 2020).
Marks after values point to notes of the source that are not given here. Peptide text beside a SMILES is read from it. * marks the point of attachment. X72 = O=C1C=CC(=O)N1c1ccccc1CCCCCCCCCCC(=O)*; X49 = O=C1C=CC(=O)N1c1ccccc1CCCCCC(=O)*; X61 = O=C1C=CC(=O)N1c1cccc(CCCC(=O)*)c1

Legend:
[1] = tested on: choroidal neovascularization; experiment: Choroidal neovascularization in rats (laser photocoagulation, FFA); type: in vivo; conditions: BN rats
Outline: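 Male BN rats aged 6-8 weeks were given 8 krypton-laser spots around the optic disc (647.1 nm, 350 mW, 50 μm, 0.05 s). Once the model was confirmed, groups of 5 got daily intravitreal compound at 0.05 μM or saline for 1 week. FFA followed at 3, 7, 14 and 28 days after dosing.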

[2] = tested on: carrageenan-induced toe swelling; experiment: Carrageenan-induced toe swelling in rats; type: in vivo; conditions: SD rats; for Swelling degree 1 h: 1 h after carrageenan; for Swelling degree 3 h: 3 h after carrageenan; for Swelling degree 5 h: 5 h after carrageenan; for Swelling degree 7 h: 7 h after carrageenan
Outline: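 Paw swelling, in mL, is the post-inflammation minus pre-inflammation volume of the right hind foot, read as overflow liquid when immersed to a pen-marked joint. Treatment was daily injection over 3 d; model group received saline of the same volume.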

[3] = tested on: human retinal capillary endothelial cells (HRCECs); experiment: MTT proliferation inhibition on HRCECs; type: cell-based; conditions: 48 h; for A570 nm-A630 nm: mean±SD
Outline: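 HRCECs seeded at 3.0×10^4 cells/mL, adhered overnight, then exposed to polypeptide for 48 h at 37 °C, 5% CO2. MTT added 4 h, formazan dissolved in DMSO, absorbance 570/630 nm; PIR (%) = 1 − treated/negative control, mean±SD of three independent runs.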

[4] = tested on: splenic lymphocytes; experiment: Proliferation of splenic lymphocytes in mice (ConA, MTT); type: cell-based; conditions: ConA-stimulated mouse splenic lymphocytes, 48 h
Outline: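 Proliferation read as OD 570 nm after 4 h MTT and DMSO solubilisation, five parallel wells. Before that, ConA-stimulated splenic lymphocytes from mice, 5×10^6 cells/mL in 10% calf serum RPMI 1640, were cultured 48 h at 37° C. with different peptide concentrations; controls were blank, ConA alone and dexamethasone.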

[5] = tested on: corneal neovascularization; experiment: Corneal neovascularization induced by alkali burn in BALB/c mice; type: in vivo; parameters: Inhibition rate (corneal neovascularization): concentration or dose not given beside the values; conditions: day 14 after alkali burn, vitreous injection once a day for 1 week
[6] = tested on: adjuvant arthritis; experiment: Rat adjuvant arthritis (AA) animal model; type: in vivo, SD rats; conditions: 4.0 mg/kg; for Clinical score: intravenous in the tail once every five days from day 10, four paws scored 0-4, max 16, mean±SD; for Joint swelling degree / Left and right paw swelling degree: intravenous in the tail once every five days from day 10, mean±SD
[7] = day 3 after administration, total light spot number was 297, 0.05 μM in the vitreous chamber once a day for 1 week
[8] = day 7 after administration, total light spot number was 186, 0.05 μM in the vitreous chamber once a day for 1 week
[9] = day 14 after administration, total light spot number was 137, 0.05 μM in the vitreous chamber once a day for 1 week
[10] = day 28 after administration, total light spot number was 69, 0.05 μM in the vitreous chamber once a day for 1 week

C[C@H](NC(=O)CNC(=O)[C@H](CCCNC(=N)N)NC(=O)CCCCCCCCCCc1ccccc1N1C(=O)C=CC1=O)C(=O)N[C@@H](CC(=O)O)C(=O)N[C@@H](CCCNC(=N)N)C(=O)N[C@@H](C)C(=O)NCC(=O)NCC(=O)NCC(=O)NCC(=O)N[C@@H](CCCNC(=N)N)C(=O)NCC(=O)N[C@@H](CC(=O)O)C(=O)O [X22] (X72-RGADRAGGGGRGD-OH)
CNV Incidence (%) [1, 7]: 53.87%
Leakage Light spot number [1, 7]: 160
CNV Incidence (%) [1, 8]: 47.85%
Leakage Light spot number [1, 8]: 89
CNV Incidence (%) [1, 9]: 43.80%
Leakage Light spot number [1, 9]: 60
CNV Incidence (%) [1, 10]: 37.68%
Leakage Light spot number [1, 10]: 26
Swelling degree 1 h ([2]; 2.0 mg/kg once a day for 3 d): 0.24 ± 0.13 mg
Swelling degree 3 h ([2]; 2.0 mg/kg once a day for 3 d): 0.31 ± 0.15 mg
Swelling degree 5 h ([2]; 2.0 mg/kg once a day for 3 d): 0.42 ± 0.14 mg
Swelling degree 7 h ([2]; 2.0 mg/kg once a day for 3 d): 0.38 ± 0.18 mg
Swelling degree 1 h ([2]; 4.0 mg/kg once a day for 3 d): 0.23 ± 0.11 mg
Swelling degree 3 h ([2]; 4.0 mg/kg once a day for 3 d): 0.31 ± 0.16 mg
Swelling degree 5 h ([2]; 4.0 mg/kg once a day for 3 d): 0.36 ± 0.13 mg
Swelling degree 7 h ([2]; 4.0 mg/kg once a day for 3 d): 0.37 ± 0.13 mg
Inhibition rate (%) ([3]; dose 0.05 μM): 49.30%*
A570 nm-A630 nm ([3]; dose 0.05 μM): 0.6701 ± 0.07545
Inhibition rate (%) ([3]; dose 0.1 μM): 64.15%**
A570 nm-A630 nm ([3]; dose 0.1 μM): 0.4738 ± 0.00344
Inhibition rate (%) ([3]; dose 0.2 μM): 66.52%*
A570 nm-A630 nm ([3]; dose 0.2 μM): 0.4425 ± 0.04816
A570 nm/A630 nm ([4]; polypeptide dose 0.05 μM): 0.5694 ± 0.0561
Inhibition rate (%) ([4]; polypeptide dose 0.05 μM): 15.69%
A570 nm/A630 nm ([4]; polypeptide dose 0.1 μM): 0.4603 ± 0.0873
Inhibition rate (%) ([4]; polypeptide dose 0.1 μM): 31.85%
A570 nm/A630 nm ([4]; polypeptide dose 0.2 μM): 0.4521 ± 0.1194
Inhibition rate (%) ([4]; polypeptide dose 0.2 μM): 33.06%
Inhibition rate (corneal neovascularization) [5]: 46.70%
MVD (corneal microvessel density) [5]: 35.84 ± 6.594
Clinical score [6]: 5.67 ± 1.12
Joint swelling degree [6]: 0.83 ± 0.14 mm
Left and right paw swelling degree [6]: 3.92 ± 0.18 mm

C[C@H](NC(=O)CNC(=O)[C@H](CCCNC(=N)N)NC(=O)CCCCCc1ccccc1N1C(=O)C=CC1=O)C(=O)N[C@@H](CC(=O)O)C(=O)N[C@@H](CCCNC(=N)N)C(=O)N[C@@H](C)C(=O)NCC(=O)NCC(=O)NCC(=O)NCC(=O)N[C@@H](CCCNC(=N)N)C(=O)NCC(=O)N[C@@H](CC(=O)O)C(=O)O [X17] (X49-RGADRAGGGGRGD-OH)
CNV Incidence (%) [1, 7]: 54.88%
Leakage Light spot number [1, 7]: 163
CNV Incidence (%) [1, 8]: 48.39%
Leakage Light spot number [1, 8]: 90
CNV Incidence (%) [1, 9]: 42.34%
Leakage Light spot number [1, 9]: 58
CNV Incidence (%) [1, 10]: 40.58%
Leakage Light spot number [1, 10]: 28
Swelling degree 1 h ([2]; 2.0 mg/kg once a day for 3 d): 0.27 ± 0.15 mg
Swelling degree 3 h ([2]; 2.0 mg/kg once a day for 3 d): 0.32 ± 0.14 mg
Swelling degree 5 h ([2]; 2.0 mg/kg once a day for 3 d): 0.38 ± 0.17 mg
Swelling degree 7 h ([2]; 2.0 mg/kg once a day for 3 d): 0.35 ± 0.19 mg
Swelling degree 1 h ([2]; 4.0 mg/kg once a day for 3 d): 0.24 ± 0.12 mg
Swelling degree 3 h ([2]; 4.0 mg/kg once a day for 3 d): 0.31 ± 0.19 mg
Swelling degree 5 h ([2]; 4.0 mg/kg once a day for 3 d): 0.37 ± 0.17 mg
Swelling degree 7 h ([2]; 4.0 mg/kg once a day for 3 d): 0.34 ± 0.15 mg
Inhibition rate (%) ([3]; dose 0.05 μM): 55.10%*
A570 nm-A630 nm ([3]; dose 0.05 μM): 0.5934 ± 0.03887
Inhibition rate (%) ([3]; dose 0.1 μM): 62.16%**
A570 nm-A630 nm ([3]; dose 0.1 μM): 0.5001 ± 0.02347
Inhibition rate (%) ([3]; dose 0.2 μM): 65.08%*
A570 nm-A630 nm ([3]; dose 0.2 μM): 0.4616 ± 0.02184
A570 nm/A630 nm ([4]; polypeptide dose 0.05 μM): 0.6219 ± 0.0629
Inhibition rate (%) ([4]; polypeptide dose 0.05 μM): 7.92%
A570 nm/A630 nm ([4]; polypeptide dose 0.1 μM): 0.5484 ± 0.1109
Inhibition rate (%) ([4]; polypeptide dose 0.1 μM): 18.80%
A570 nm/A630 nm ([4]; polypeptide dose 0.2 μM): 0.5025 ± 0.0957
Inhibition rate (%) ([4]; polypeptide dose 0.2 μM): 25.60%
Inhibition rate (corneal neovascularization) [5]: 48.05%
MVD (corneal microvessel density) [5]: 34.93 ± 4.725
Clinical score [6]: 5.82 ± 1.05
Joint swelling degree [6]: 0.78 ± 0.15 mm
Left and right paw swelling degree [6]: 3.84 ± 0.88 mm

C[C@H](NC(=O)CNC(=O)[C@H](CCCNC(=N)N)NC(=O)CCCc1cccc(N2C(=O)C=CC2=O)c1)C(=O)N[C@@H](CC(=O)O)C(=O)N[C@@H](CCCNC(=N)N)C(=O)N[C@@H](C)C(=O)NCC(=O)NCC(=O)NCC(=O)NCC(=O)N[C@@H](CCCNC(=N)N)C(=O)NCC(=O)N[C@@H](CC(=O)O)C(=O)O [X27] (X61-RGADRAGGGGRGD-OH)
CNV Incidence (%) [1, 7]: 54.88%
Leakage Light spot number [1, 7]: 163
CNV Incidence (%) [1, 8]: 46.24%
Leakage Light spot number [1, 8]: 86
CNV Incidence (%) [1, 9]: 42.34%
Leakage Light spot number [1, 9]: 58
CNV Incidence (%) [1, 10]: 36.23%
Leakage Light spot number [1, 10]: 25
Swelling degree 1 h ([2]; 2.0 mg/kg once a day for 3 d): 0.27 ± 0.13 mg
Swelling degree 3 h ([2]; 2.0 mg/kg once a day for 3 d): 0.33 ± 0.14 mg
Swelling degree 5 h ([2]; 2.0 mg/kg once a day for 3 d): 0.39 ± 0.17 mg
Swelling degree 7 h ([2]; 2.0 mg/kg once a day for 3 d): 0.36 ± 0.16 mg
Swelling degree 1 h ([2]; 4.0 mg/kg once a day for 3 d): 0.24 ± 0.12 mg
Swelling degree 3 h ([2]; 4.0 mg/kg once a day for 3 d): 0.33 ± 0.16 mg
Swelling degree 5 h ([2]; 4.0 mg/kg once a day for 3 d): 0.32 ± 0.17 mg
Swelling degree 7 h ([2]; 4.0 mg/kg once a day for 3 d): 0.34 ± 0.14 mg
Inhibition rate (%) ([3]; dose 0.05 μM): 49.84%*
A570 nm-A630 nm ([3]; dose 0.05 μM): 0.6629 ± 0.02448
Inhibition rate (%) ([3]; dose 0.1 μM): 56.47%**
A570 nm-A630 nm ([3]; dose 0.1 μM): 0.5753 ± 0.02814
Inhibition rate (%) ([3]; dose 0.2 μM): 56.64%*
A570 nm-A630 nm ([3]; dose 0.2 μM): 0.5731 ± 0.04774
A570 nm/A630 nm ([4]; polypeptide dose 0.05 μM): 0.5388 ± 0.0643
Inhibition rate (%) ([4]; polypeptide dose 0.05 μM): 20.23%
A570 nm/A630 nm ([4]; polypeptide dose 0.1 μM): 0.5231 ± 0.0967
Inhibition rate (%) ([4]; polypeptide dose 0.1 μM): 22.55%
A570 nm/A630 nm ([4]; polypeptide dose 0.2 μM): 0.4792 ± 0.0849
Inhibition rate (%) ([4]; polypeptide dose 0.2 μM): 29.08%
Inhibition rate (corneal neovascularization) [5]: 43.93%
MVD (corneal microvessel density) [5]: 37.70 ± 3.805
Clinical score [6]: 5.63 ± 1.12
Joint swelling degree [6]: 0.74 ± 0.17 mm
Left and right paw swelling degree [6]: 3.86 ± 0.85 mm
